In PubChem BioAssay AID248 (DTP/NCI, 2004):
Values joined by “and” are separate entries in the source; they are usually repeats but may differ in a detail not shown here. Equal values may be shown once. Inconclusive results and toxic doses are left out. No stated cut-off is given here; in the data, active means T/C of 150% or more; inactive means T/C below 125%.

Tested on: L1210 leukemia ip in BDF1 mice, survival T/C
Assay: NCI In Vivo Anticancer Drug Screen. Data for tumor model L1210 Leukemia (intraperitoneal) in B6D2F1 (BDF1) mice
Conditions: endpoint: mean survival time, higher = longer survival
Summary of the method: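 Transplantable tumor model; survival measured in treated vs vehicle control mice. Value = treated/control.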

[1] = dose: 50.0 mg/kg/injection, schedule: Q01DX009 (ip), vehicle: Klucel (hydroxypropylcellulose) (HPC)
[2] = dose: 100.0 mg/kg/injection, schedule: Q01DX009 (ip), vehicle: Klucel (hydroxypropylcellulose) (HPC)
[3] = dose: 100.0 mg/kg/injection, schedule: Q01DX001 (ip), vehicle: saline
[4] = dose: 200.0 mg/kg/injection, schedule: Q01DX001 (ip), vehicle: saline
[5] = dose: 400.0 mg/kg/injection, schedule: Q01DX001 (ip), vehicle: saline
[6] = dose: 200.0 mg/kg/injection, schedule: Q01DX009 (ip), vehicle: Klucel (hydroxypropylcellulose) (HPC)
[7] = dose: 400.0 mg/kg/injection, schedule: Q01DX009 (ip), vehicle: Klucel (hydroxypropylcellulose) (HPC)
[8] = dose: 100.0 mg/kg/injection, schedule: Q01DX001 (ip), vehicle: carboxymethylcellulose (CMC)
[9] = dose: 200.0 mg/kg/injection, schedule: Q01DX001 (ip), vehicle: carboxymethylcellulose (CMC)
[10] = dose: 400.0 mg/kg/injection, schedule: Q01DX001 (ip), vehicle: carboxymethylcellulose (CMC)
[11] = dose: 100.0 mg/kg/injection, schedule: Q04DX003 (ip), vehicle: Klucel (hydroxypropylcellulose) (HPC)
[12] = dose: 200.0 mg/kg/injection, schedule: Q04DX003 (ip), vehicle: Klucel (hydroxypropylcellulose) (HPC)

Measured: T/C

c1ccc(N/N=C(/C[n+]2cc3ccccc3c3ccccc32)c2ccccc2)cc1
inactive: dose: 12.5 mg/kg/injection, schedule: Q01DX009 (ip), vehicle: Klucel (hydroxypropylcellulose) (HPC) 100 % of control | dose: 25.0 mg/kg/injection, schedule: Q01DX009 (ip), vehicle: Klucel (hydroxypropylcellulose) (HPC) 89 % of control | [1] 102 % of control | [2] 100 % of control

C=CCC(OC(=O)Nc1ccc(Cl)cc1)C1OC(c2ccccc2)OC2COC(c3ccccc3)OC21 (centres undefined)
inactive: dose: 100.0 mg/kg/injection, schedule: Q01DX001 (ip), vehicle: gum acacia 91 % of control | dose: 200.0 mg/kg/injection, schedule: Q01DX001 (ip), vehicle: gum acacia 91 % of control | dose: 400.0 mg/kg/injection, schedule: Q01DX001 (ip), vehicle: gum acacia 93 % of control

CCOC(=O)c1[nH]cnc1N
inactive: [3] 96 % of control | [4] 94 % of control | [5] 96 % of control

CC(=O)OC1CCC2(C)C(CCC3C2CC(=O)C2(C)C3CC(Sc3ccc(N(CCCl)CCCl)cc3)C2C(C)=O)C1 (centres undefined)
inactive: dose: 100.0 mg/kg/injection, schedule: Q01DX001 (sc), vehicle: steriod suspending solution 108 % of control | dose: 200.0 mg/kg/injection, schedule: Q01DX001 (sc), vehicle: steriod suspending solution 103 % of control | dose: 400.0 mg/kg/injection, schedule: Q01DX001 (sc), vehicle: steriod suspending solution 105 % of control

O=C(O)CN1C(=O)c2cccc([N+](=O)[O-])c2C1=O
inactive: [2] 100 % of control | [6] 100 % of control | [7] 101 % of control

Nc1nc(Nc2ccc(NC=O)cc2)c(NC=O)c(=O)[nH]1
inactive: dose: 50.0 mg/kg/injection, schedule: Q01DX001 (ip), vehicle: saline 89 % of control | [4] 86 % of control

O=C(O)C1C2C=CC(C2)C1C(=O)Nc1ccccn1 (centres undefined)
inactive: dose: 50.0 mg/kg/injection, schedule: Q01DX009 (ip), vehicle: saline with Tween-80 104 % of control | dose: 100.0 mg/kg/injection, schedule: Q01DX009 (ip), vehicle: saline with Tween-80 101 % of control | dose: 200.0 mg/kg/injection, schedule: Q01DX009 (ip), vehicle: saline with Tween-80 96 % of control

O=C(O)c1cccc2c1C(Br)C(Br)c1ccccc1-2 (centres undefined)
inactive: dose: 100.0 mg/kg/injection, schedule: Q04DX003 (ip), vehicle: saline 94 % of control | dose: 200.0 mg/kg/injection, schedule: Q04DX003 (ip), vehicle: saline 94 % of control | dose: 400.0 mg/kg/injection, schedule: Q04DX003 (ip), vehicle: saline 92 % of control

O=C1c2ccccc2C2(c3ccccc31)C(C(=O)c1ccccc1)C2C(=O)c1ccccc1 (centres undefined)
inactive: dose: 75.0 mg/kg/injection, schedule: Q01DX001 (ip), vehicle: carboxymethylcellulose (CMC) 94 % of control | dose: 150.0 mg/kg/injection, schedule: Q01DX001 (ip), vehicle: carboxymethylcellulose (CMC) 96 % of control | dose: 300.0 mg/kg/injection, schedule: Q01DX001 (ip), vehicle: carboxymethylcellulose (CMC) 91 % of control

c1ccc(N2CNN(c3ccccc3)CN2)cc1
inactive: [8] 86 % of control | [9] 90 % of control | [10] 95 % of control

OC1C=Cc2ccccc21 (centres undefined)
inactive: dose: 100.0 mg/kg/injection, schedule: Q04DX002 (ip), vehicle: other 97 % of control | dose: 200.0 mg/kg/injection, schedule: Q04DX002 (ip), vehicle: other 97 % of control

Nc1nc(NCCO)c(NC=O)c(=O)[nH]1
inactive: dose: 100.0 mg/kg/injection, schedule: Q01DX Z (ip), vehicle: methylcellulose (MC) 103 % of control | dose: 128.0 mg/kg/injection, schedule: Q01DX Z (ip), vehicle: methylcellulose (MC) 95 % of control | dose: 222.0 mg/kg/injection, schedule: Q01DX Z (ip), vehicle: methylcellulose (MC) 94 % of control | dose: 333.0 mg/kg/injection, schedule: Q01DX Z (ip), vehicle: methylcellulose (MC) 97 % of control

CC(C)CCCC(C)C1CCC2C3CCC4CC(I)CCC4(C)C3CCC12C (centres undefined)
inactive: dose: 100.0 mg/kg/injection, schedule: Q01DX001 (ip), vehicle: saline with Tween-80 93 % of control | dose: 200.0 mg/kg/injection, schedule: Q01DX001 (ip), vehicle: saline with Tween-80 95 % of control | dose: 400.0 mg/kg/injection, schedule: Q01DX001 (ip), vehicle: saline with Tween-80 90 % of control

Cc1ccc(S(=O)(=O)N2CCC(Br)C(=O)c3ccccc32)cc1 (centres undefined)
inactive: [3] 94 % of control | dose: 100.0 mg/kg/injection, schedule: Q01DX009 (ip), vehicle: saline 107 % of control | [4] 107 % of control | dose: 200.0 mg/kg/injection, schedule: Q01DX009 (ip), vehicle: saline 109 % of control | [5] 100 % of control | dose: 400.0 mg/kg/injection, schedule: Q01DX009 (ip), vehicle: saline 97 % of control

O=C(NC(C(=O)c1ccccc1)c1ccccc1)c1ccccc1 (centres undefined)
inactive: dose: 50.0 mg/kg/injection, schedule: Q04DX002 (ip), vehicle: Klucel (hydroxypropylcellulose) (HPC) 98 % of control | [2] 86 % of control | dose: 100.0 mg/kg/injection, schedule: Q04DX002 (ip), vehicle: Klucel (hydroxypropylcellulose) (HPC) 92 % of control | dose: 200.0 mg/kg/injection, schedule: Q04DX002 (ip), vehicle: Klucel (hydroxypropylcellulose) (HPC) 106 % of control | [7] 101 % of control

CN(C)CCn1c2ccccc2c2ccccc21
inactive: dose: 100.0 mg/kg/injection, schedule: Q04DX003 (ip), vehicle: saline with Tween-80 92 % of control | dose: 200.0 mg/kg/injection, schedule: Q04DX003 (ip), vehicle: saline with Tween-80 92 % of control | dose: 400.0 mg/kg/injection, schedule: Q04DX003 (ip), vehicle: saline with Tween-80 95 % of control

COc1ccc(CCC2(C=O)CNCN2)cc1 (centres undefined)
inactive: dose: 100.0 mg/kg/injection, schedule: Q01DX001 (ip), vehicle: other 98 % of control | dose: 200.0 mg/kg/injection, schedule: Q01DX001 (ip), vehicle: other 93 % of control

CC1CN=C(c2ccc(NC(=O)NCCCCCCCCCNC(=O)Nc3ccc(C4=NCC(C)N4)cc3)cc2)N1 (centres undefined)
inactive: dose: 6.5 mg/kg/injection, schedule: Q01DX Z (ip), vehicle: carboxymethylcellulose (CMC) 86 % of control | dose: 13.0 mg/kg/injection, schedule: Q01DX Z (ip), vehicle: carboxymethylcellulose (CMC) 100 % of control | dose: 26.0 mg/kg/injection, schedule: Q01DX Z (ip), vehicle: carboxymethylcellulose (CMC) 106 % of control | dose: 52.0 mg/kg/injection, schedule: Q01DX Z (ip), vehicle: carboxymethylcellulose (CMC) 107 % of control

Cc1cnc2c(Nc3ccc(Cl)cc3)cc(N)nc2n1
inactive: dose: 12.5 mg/kg/injection, schedule: Q01DX001 (ip), vehicle: other 94 % of control | dose: 25.0 mg/kg/injection, schedule: Q01DX001 (ip), vehicle: other 96 % of control | dose: 25.0 mg/kg/injection, schedule: Q04DX003 (ip), vehicle: Klucel (hydroxypropylcellulose) (HPC) 96 % of control | dose: 50.0 mg/kg/injection, schedule: Q01DX001 (ip), vehicle: other 94 % of control and 105 % of control | [1] 94 % of control | dose: 50.0 mg/kg/injection, schedule: Q04DX003 (ip), vehicle: Klucel (hydroxypropylcellulose) (HPC) 101 % of control

COC(=O)C(c1ccccc1)C(Br)C(=O)c1ccccc1 (centres undefined)
inactive: [2] 86 % of control | [11] 97 % of control | [6] 86 % of control | [12] 102 % of control | [7] 86 % of control | dose: 400.0 mg/kg/injection, schedule: Q04DX003 (ip), vehicle: Klucel (hydroxypropylcellulose) (HPC) 95 % of control

N#C/C=C/C=C/C#N
inactive: dose: 75.0 mg/kg/injection, schedule: Q01DX001 (ip), vehicle: other 98 % of control | dose: 150.0 mg/kg/injection, schedule: Q01DX001 (ip), vehicle: other 103 % of control

CC12CCCC(O)(C1)NC(=O)C2C#N (centres undefined)
inactive: [8] 102 % of control | [9] 97 % of control | [10] 94 % of control

CCOC(=O)C(C(=O)OCC)C1c2ccccc2C(=NO)c2ccccc21 (centres undefined)
inactive: [1] 96 % of control | [2] 98 % of control | [11] 88 % of control | [6] 94 % of control | [12] 92 % of control

CN1C(=O)c2ccccc2C1(N)c1ccccc1 (centres undefined)
inactive: [2] 90 % of control | [6] 105 % of control | [7] 100 % of control
